≈ marks a conversion by molar mass, not a printed value.
Experiments:
Format in all cases: functional
[1] = tested on: Mycobacterium tuberculosis; test: Antimycobacterial activity against Mycobacterium tuberculosis DR1 harboring mmpL3 V681I mutant assessed as inhibition of bacterial growth measured after 21 days by microbroth dilution method; settings: time 21 day
[2] = tested on: Mycobacterium tuberculosis; test: Antimycobacterial activity against Mycobacterium tuberculosis 88.7 harboring pyrG V186G mutant assessed as inhibition of bacterial growth measured after 21 days by microbroth dilution method; settings: time 21 day
[3] = tested on: Mycobacterium tuberculosis; test: Antimycobacterial activity against streptomycin, isoniazid, rifampicin, ethambutol, pyrazinamide, ethionamide and capreomycin resistant Mycobacterium tuberculosis IC2 assessed as inhibition of bacterial growth measured after 21 days by microbroth dilution method; settings: IC2, 504 h, time 21 day
[4] = tested on: Mycobacterium tuberculosis; test: Antimycobacterial activity against Mycobacterium tuberculosis NTB1 harboring DprE1 G387S mutant assessed as inhibition of bacterial growth measured after 21 days by microbroth dilution method; settings: time 21 day
[5] = tested on: Mycobacterium tuberculosis; test: Antimycobacterial activity against Mycobacterium tuberculosis 81.10 harboring EthA del (1109 to 37 residues) mutant assessed as inhibition of bacterial growth measured after 21 days by microbroth dilution method; settings: time 21 day
[6] = tested on: Mycobacterium tuberculosis; test: Antimycobacterial activity against Mycobacterium tuberculosis Ty1 harboring Rv3405c C190T mutant assessed as inhibition of bacterial growth measured after 21 days by microbroth dilution method; settings: time 21 day
[7] = tested on: Mycobacterium tuberculosis; test: Antimycobacterial activity against Mycobacterium tuberculosis 53.3 harboring Rv2466c W28S mutant assessed as inhibition of bacterial growth measured after 21 days by microbroth dilution method; settings: time 21 day

| Compound | MIC [1] | MIC [2] | MIC [3] | MIC [4] | MIC [5] | MIC [6] | MIC [7] |
| --- | --- | --- | --- | --- | --- | --- | --- |
| Clc1ccc(CN2CCC(C3c4ccccc4-c4ccccc43)C2)cc1 (centres undefined) | 0.5 µg/mL (≈ 1.39 µM) | 0.5 µg/mL (≈ 1.39 µM) | 0.5 µg/mL (≈ 1.39 µM) | 0.5 µg/mL (≈ 1.39 µM) | 0.5 µg/mL (≈ 1.39 µM) | 0.5 µg/mL (≈ 1.39 µM) | 0.5 µg/mL (≈ 1.39 µM) |
| NNC(=O)c1ccncc1 [ISONIAZID] | 0.025 µg/mL (≈ 0.182 µM) | 0.025 µg/mL (≈ 0.182 µM) | > 0.2 µg/mL | 0.025 µg/mL (≈ 0.182 µM) | 0.025 µg/mL (≈ 0.182 µM) | 0.025 µg/mL (≈ 0.182 µM) | 0.025 µg/mL (≈ 0.182 µM) |
